Calls of active or inactive are those of the source. How the calls were made is not given here.

The assay has as its target Bcl-2-like protein 1 (Homo sapiens) (UniProt Q07817). Nature of the assay: Bcl-XL binding to Bim peptide disruption – biochemical, multiplexed, bead flow cytometry, human Bcl-XL, dose response (AID 1322). On inhibition: test concentration not given here. As to conditions: Bead-based flow cytometry, MCF; for inhibition: active compounds read high.

Bcl-2-like protein 1 (Homo sapiens), sequence (Q07817 whole entry, looked up): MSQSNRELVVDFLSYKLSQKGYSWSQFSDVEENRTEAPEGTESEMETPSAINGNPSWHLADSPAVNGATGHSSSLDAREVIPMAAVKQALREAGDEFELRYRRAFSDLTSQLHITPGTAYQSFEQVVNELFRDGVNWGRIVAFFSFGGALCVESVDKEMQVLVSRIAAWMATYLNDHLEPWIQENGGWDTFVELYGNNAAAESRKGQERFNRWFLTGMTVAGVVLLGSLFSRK

Take `COc1cccc2c(SCC(=O)N/N=C/c3ccccc3)cc(C)nc12`: the inhibition result was “inactive”.

For the compound `COCc1cc(CN2CCCC(CNC(=O)c3ccc(F)cc3)C2)ccc1OC` (centres undefined), the inhibition result is “inactive”.

Consider `CCNC(=S)Nc1cc(OCC)c(NC(=O)c2cccs2)cc1OCC`, for which the inhibition entry was “inactive”.

As for `CC1=CC(=O)c2c(O)ccc(O)c2C1=O`, the inhibition result was “inactive”.

Consider `Cn1c(=O)c2cc(S(=O)(=O)Nc3cc(C(=O)O)cc(C(=O)O)c3)ccc2n(C)c1=O`, for which the result was inactive.

For `CCN1CCN(CC(=O)c2c[nH]c3ccc(C)cc23)CC1`, the inhibition result was “inactive”.

As for `COc1cc(N=c2ssnc2Cl)cc(OC)c1OC`, the inhibition entry was “inactive”.

Regarding `Cc1c(N=C2C=CC(=O)c3ccccc32)c(=O)n(-c2ccccc2)n1C`, the inhibition entry is “inactive”.

On to `COC(=O)c1sc(NC(=O)c2ccc(Cn3cc(Cl)cn3)o2)c(C#N)c1C`, for which the inhibition result was “inactive”.

As to `COc1ccc(OC)c(NC(=O)CCCN2C(=S)NC(C)(C)CC2C)c1` (centres undefined), the result was inactive.

As for `CCn1c(C)c(/C=N/Nc2nc3ccccc3s2)c2ccccc21`, the inhibition result is “inactive”.

Take `Cc1ccc(NC(=O)c2cc(S(=O)(=O)NCCC3=CCCCC3)ccc2F)cc1F`: the result was inactive.

Take `CCOC(=O)CSC1=NC(=O)/C(=C\c2ccc(OC(C)=O)cc2)S1`: the inhibition entry was “inactive”.

As for `Cc1ccc(S(=O)(=O)N2CCCCC2)cc1NC(=O)COC(=O)c1ccccc1F`, the inhibition result was “inactive”.

Take `O=c1c2c(n3nnnc3n1Cc1ccccc1)-c1ccccc1CC21CCCC1`: the inhibition result was “inactive”.

With `O=C(COc1ccc(Br)cc1CNC1CCCCC1)NCCc1ccccc1`, the inhibition entry is “inactive”.

For the compound `COc1ccccc1C1=Nc2cccc3cccc(c23)N1`, the inhibition result was “inactive”.

As to `COC(=O)Cc1ccc(NC(=S)N2CCN(c3cccc(O)c3)CC2)cc1`, the inhibition entry is “inactive”.

Turning to `COc1cc(C=Nc2cccc(C)c2)c(O)c([N+](=O)[O-])c1`, the inhibition result is “inactive”.

On to `Cc1ccc(NC(=S)N2CCn3cccc3C2c2cccnc2)cc1` (centres undefined), for which the result was inactive.

Turning to `CCN(CC)c1ccc(NC2=C(Cl)C(=O)c3ccccc3C2=O)cc1`, the outcome was inactive.

Consider `COC(=O)CCC(=O)Nc1sc(C)c(C)c1C(N)=O`, for which the inhibition entry is “inactive”.

Take `Cc1cc(C)nc(/N=c2/ssnc2Cl)c1`: the inhibition result is “inactive”.

Turning to `Cc1ccc(NC2=C(Cl)C(=O)c3ccccc3C2=O)cc1`, the inhibition entry was “inactive”.

As for `Cc1c(NC2=C(Cl)C(=O)N(c3ccccc3)C2=O)c(=O)n(-c2ccccc2)n1C`, the inhibition entry is “inactive”.

As for `Cc1ccc(S(=O)(=O)NC(=O)COc2ccccc2C)cc1`, the inhibition result was “inactive”.

`CC(C(=O)Nc1ccc([N+](=O)[O-])cc1)N1CCN(C/C=C/c2ccccc2)CC1` (centres undefined): the inhibition result was “inactive”.

`O=C(OCc1cnc(Cl)s1)c1cccc(Cl)c1Cl`: the inhibition result was “inactive”.

`COc1ccc(NC(=O)c2cc(-c3ccc(C)o3)nc3ccccc23)cc1OC`: the inhibition entry is “inactive”.

`c1ccc(-c2nnc(OCCN3CCOCC3)c3ccccc23)cc1`: the inhibition result was “inactive”.

Consider `Cc1nnc(Sc2cc(NCCCO)c([N+](=O)[O-])c3nonc23)s1`, for which the inhibition entry was “inactive”.

Take `Cc1ccc(-c2cc(C(=O)Nc3cccnc3)c3ccccc3n2)o1`: the inhibition result was “inactive”.

In the case of `CCOc1ccc(C2=Nn3c(nnc3-c3ccco3)SC2)cc1`, the inhibition result is “inactive”.

Consider `Clc1ccc2c(N/N=C/c3ccccc3Br)ccnc2c1`, for which the inhibition entry was “inactive”.

Consider `CCN(CC)S(=O)(=O)c1cccc(C(=O)N/N=C/c2ccc(O)c(O)c2O)c1`, for which the inhibition result is “inactive”.

Turning to `CSc1nnc2ccc(-c3cccs3)nn12`, the inhibition entry is “inactive”.

On to `Cc1c(N2C(=O)c3ccc4c5c(ccc(c35)C2=O)CC4)c(=O)n(-c2ccccc2)n1C`, for which the inhibition entry was “inactive”.

Take `CCN1C(=O)/C(=C\C=C2/C=CC=CN2CC)SC1=S`: the inhibition result is “inactive”.

Turning to `Cc1ccc(N=Cc2c(O)n(-c3ccc4c(c3)OCO4)c(=O)c3ccccc23)cc1`, the inhibition result is “inactive”.

`C/C(=C\c1ccco1)C1Nc2cccc3cccc(c23)N1`: the inhibition result was “inactive”.

As to `S=c1[nH]cc(-c2ccccc2)n1-c1ccccc1Cl`, the inhibition result was “inactive”.

`Cc1ccc(-c2c3c([nH]c(=S)c2C#N)CCCC3)o1`: the inhibition result is “inactive”.

As to `O=C(/C=C/c1ccc(-c2ccccc2)o1)c1ccccc1`, the inhibition entry is “inactive”.

In the case of `Cc1cc(N2CCN(C)CC2)nc2ccc(NC(=S)N3CCCCC3)cc12`, the inhibition result is “inactive”.

Regarding `CCOC(=O)C1=C(Cc2ccc(C)cc2)C(=O)c2ccccc2C1=O`, the inhibition result was “inactive”.

`CCOc1ccc(CNc2ccc(N3CCCC3)cc2)cc1`: the inhibition result was “inactive”.

For the compound `C/C(=N\NC(=O)Cc1cccn1C)c1ccc2ccccc2c1`, the inhibition entry was “inactive”.

`CC(=O)OCCCNc1cc(Sc2nc3ccccc3s2)c2nonc2c1[N+](=O)[O-]`: the inhibition result is “inactive”.

Regarding `S=C(NCCc1ccccc1)NCCc1ccccc1`, the inhibition result was “inactive”.

In the case of `O=C(/C=C/c1ccc(-c2ccccc2[N+](=O)[O-])o1)c1ccccc1`, the inhibition result was “inactive”.

With `CN(C)[C@@H]1C(=O)C(C(=O)NCN2CCCC2)=C(O)[C@@]2(O)C(=O)C3=C(O)c4c(O)cccc4[C@@](C)(O)C3CC12` (some centres undefined), the inhibition entry is “inactive”.

Turning to `NNC(=O)COc1ccccc1F`, the inhibition result is “inactive”.

With `CCOC(=O)c1nc(Nc2ccc(Nc3ccccc3)cc2)c2ccccc2n1`, the inhibition result is “inactive”.

For the compound `C=CCN1C(=O)/C(=C/c2ccsc2)SC1=S`, the result was inactive.

Turning to `Cc1cc(C)nc(SCc2cc(=O)c(OC(=O)c3cccc([N+](=O)[O-])c3)co2)n1`, the inhibition result was “inactive”.

As to `O=C(NCC1CCCO1)c1ccc2c(=O)n(-c3ccc(F)cc3)c(=S)[nH]c2c1` (centres undefined), the inhibition entry was “inactive”.

Consider `CN(CCO)c1cc(Sc2nc3ccccc3s2)c2nonc2c1[N+](=O)[O-]`, for which the inhibition entry is “inactive”.

As for `Fc1ccccc1-n1cc(-c2ccccc2)[nH]c1=S`, the inhibition entry is “inactive”.

For the compound `Cc1ccc(NS(=O)(=O)c2cc(NC(=O)c3ccc4c(c3)NC(=O)CS4)ccc2C)c(C)c1`, the inhibition result was “inactive”.

For the compound `Cc1nnc(NCc2n[nH]c(=O)c3ccccc23)c2ccccc12`, the inhibition result is “inactive”.

On to `CCCC(=O)OCCNc1cc(Sc2nccn2C)c2nonc2c1[N+](=O)[O-]`, for which the inhibition result is “inactive”.

In the case of `Cc1cc(-c2csc(N)n2)c(C)n1CCC(C)C`, the inhibition result is “inactive”.

On to `COc1ccc(S(=O)(=O)NCCSc2ccc(Cl)cc2)cc1OC`, for which the inhibition result was “inactive”.

For the compound `O=C(Nc1nnc(SCc2ccccn2)s1)C1CC(=O)N(c2ccccc2)C1` (centres undefined), the inhibition result was “inactive”.

For the compound `O=C(COCC(=O)NCc1ccccc1)NCc1ccccc1`, the inhibition result was “inactive”.

With `Cc1ccc(-c2cc(-c3ccc(F)cc3)nc(N)c2C#N)o1`, the inhibition result was “inactive”.

As for `Cc1ccc(OCC(=O)NCc2ccccn2)c(Br)c1`, the inhibition entry was “inactive”.

For `CC(=O)Nc1ccc(-n2cc(-c3ccccc3)[nH]c2=S)cc1`, the inhibition result is “inactive”.

With `Cc1cc(-c2nnc(CCC(=O)NC(C)c3cccc4ccccc34)o2)no1` (centres undefined), the outcome was inactive.

For the compound `COc1ccc(C(=O)Nc2ccc(C(=O)OCC(=O)c3cccc4ccccc34)cc2)cc1`, the inhibition entry was “inactive”.

Turning to `CCOc1cc(NC(=S)NC)c(OCC)cc1NC(=O)c1ccc(OC)cc1`, the result was inactive.

Consider `CCOc1cc(S(=O)(=O)Nc2ccccn2)ccc1F`, for which the inhibition entry was “inactive”.

As to `COC(=O)c1cccc(-n2c(C)cc(C=O)c2C)c1`, the outcome was inactive.

On to `CC1=C2C(CCS2(=O)=O)CC2(C1)C(=O)OC(C)(C)OC2=O` (centres undefined), for which the inhibition entry is “inactive”.

As for `CC1(C)SC(=S)N(NC(=O)Nc2ccccc2)C1N(O)C(=O)Nc1cccc2ccccc12` (centres undefined), the inhibition entry is “inactive”.

As for `OC(COc1ccc2cc(Br)ccc2c1)CN1CCOCC1` (centres undefined), the inhibition result is “inactive”.

As for `COc1cc(C2Nc3cccc4cccc(c34)N2)cc(OC)c1O`, the inhibition result was “inactive”.

As for `Nc1ccc(N2CCCCCC2)cc1`, the inhibition result was “inactive”.

As for `Cc1nonc1NC(=O)CSc1nnc(-c2ccoc2C)n1C`, the inhibition entry was “inactive”.

In the case of `Cc1cc(C)cc(NS(=O)(=O)c2ccc3c(c2)c(=O)n(C)c(=O)n3C)c1`, the inhibition entry is “inactive”.

Turning to `CCOC(=O)CSc1nnc(-c2cccc(Cl)c2)n1CC`, the inhibition result is “inactive”.

For `O=C(OCC(=O)c1ccc[nH]1)c1ccccc1`, the inhibition entry is “inactive”.

As to `Cc1sc(NC(=O)Cn2cnnn2)nc1-c1ccc(Cl)cc1`, the inhibition result is “inactive”.

In the case of `O=C(CSc1nnc(-c2ccccc2)c(-c2ccccc2)n1)N1CCc2ccccc21`, the inhibition entry is “inactive”.

With `Cc1ccc(-c2cc(C(=O)Nc3cc(C(=O)O)ccc3C)c3ccccc3n2)cc1`, the result was inactive.

In the case of `CC1(C)CC(NC(=O)COc2ccc([N+](=O)[O-])cc2)CC(C)(C)N1`, the inhibition entry was “inactive”.

As to `O=C(/C=C/c1c(F)cccc1Cl)Nc1ccncc1`, the inhibition entry was “inactive”.

Consider `NC(=O)c1c(N)sc2c1CCCCC2`, for which the inhibition result is “inactive”.

As to `CCc1ccc(/C=C/C(=O)c2cc(Br)ccc(=O)c2O)cc1`, the inhibition result was “inactive”.

Turning to `Cc1cc(/C=C(/C#N)C(=O)Nc2ccc(Cl)cc2)c(C)n1-c1cccnc1`, the inhibition result was “inactive”.

For the compound `Cc1cc(C)nc(/N=C(\N)N2CCc3ccccc32)n1`, the inhibition result was “inactive”.

With `COc1ccccc1NC(=O)CSc1nnc(-c2ccco2)n1Cc1ccco1`, the inhibition result is “inactive”.

Regarding `CCCCCCn1nc(C(=O)Nc2nc3c(s2)CCCC3)c2ccccc2c1=O`, the inhibition entry is “inactive”.

Take `CCCCc1ccc(NC(=S)NCc2ccc(OC)cc2)cc1`: the outcome was inactive.
